Test results published in PubChem BioAssay AID1963868 (Molecular Pharmacology Branch, DTP, NCI, 2024).

Test system: KRAS PDC tumor spheroids (HUVEC+MSC), viability
Experiment: Anticancer human tumor 254851-301-R-J1-PDC patient-derived colon carcinoma cell line growth inhibition [KRAS2]
Settings: for IC50: curve of first compound; for viability, T/C: stronger effect = lower value
Method in brief: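 Combination screen of spheroid viability in tumor-cell co-cultures with endothelial (HUVEC) and mesenchymal stem cell stroma. Each agent was tested in half-log dilutions, topping at clinical Cmax or at 10 microM without a known Cmax.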

[1] = second compound 0.1 µM, first compound 0.0316 µM
[2] = second compound 0.1 µM, first compound 0.1 µM
[3] = second compound 0.1 µM, first compound 0.316 µM
[4] = second compound 0.1 µM, first compound 1 µM
[5] = second compound 0.316 µM, first compound 0.0316 µM
[6] = second compound 0.316 µM, first compound 0.1 µM
[7] = second compound 0.316 µM, first compound 0.316 µM
[8] = second compound 0.316 µM, first compound 1 µM
[9] = second compound 1 µM, first compound 0.0316 µM
[10] = second compound 1 µM, first compound 0.1 µM
[11] = second compound 1 µM, first compound 0.316 µM
[12] = second compound 1 µM, first compound 1 µM
[13] = second compound 3.16 µM, first compound 0.0316 µM
[14] = second compound 3.16 µM, first compound 0.1 µM
[15] = second compound 3.16 µM, first compound 0.316 µM
[16] = second compound 3.16 µM, first compound 1 µM
[17] = second compound 10 µM, first compound 0.0316 µM
[18] = second compound 10 µM, first compound 0.1 µM
[19] = second compound 10 µM, first compound 0.316 µM
[20] = second compound 10 µM, first compound 1 µM
[21] = second compound 0.1 µM, first compound 0.00316 µM
[22] = second compound 0.1 µM, first compound 0.01 µM
[23] = second compound 0.316 µM, first compound 0.00316 µM
[24] = second compound 0.316 µM, first compound 0.01 µM
[25] = second compound 1 µM, first compound 0.00316 µM
[26] = second compound 1 µM, first compound 0.01 µM
[27] = second compound 3.16 µM, first compound 0.00316 µM
[28] = second compound 3.16 µM, first compound 0.01 µM
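Also: spheroids exposed to compounds for seven days before readout.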
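For viability, T/C in this document: 100% = DMSO vehicle control luminescence of the spheroids.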

O=C(c1cc(Cc2n[nH]c(=O)c3ccccc23)ccc1F)N1CCN(C(=O)C2CC2)CC1 + C=CC(=O)N1CCN(c2nc(=O)n(-c3c(C)ccnc3C(C)C)c3nc(-c4c(O)cccc4F)c(F)cc23)C(C)C1
IC50 (second compound 0.1 µM): > 10000 nM | IC50 (second compound 0.316 µM): > 10000 nM | IC50 (second compound 1 µM): > 10000 nM | IC50 (second compound 3.16 µM): > 10000 nM | IC50 (second compound 10 µM): > 10000 nM | viability, T/C [1]: 104% | viability, T/C [2]: 100% | viability, T/C [3]: 101% | viability, T/C [4]: 103% | viability, T/C (second compound 0.1 µM, first compound 3.16 µM): 95.6% | viability, T/C (second compound 0.1 µM, first compound 10 µM): 89.5% | viability, T/C [5]: 116% | viability, T/C [6]: 104% | viability, T/C [7]: 96% | viability, T/C [8]: 97% | viability, T/C (second compound 0.316 µM, first compound 3.16 µM): 101% | viability, T/C (second compound 0.316 µM, first compound 10 µM): 97.2% | viability, T/C [9]: 111% | viability, T/C [10]: 101% | viability, T/C [11]: 111% | viability, T/C [12]: 104% | viability, T/C (second compound 1 µM, first compound 3.16 µM): 106% | viability, T/C (second compound 1 µM, first compound 10 µM): 92% | viability, T/C [13]: 106% | viability, T/C [14]: 102% | viability, T/C [15]: 105% | viability, T/C [16]: 100% | viability, T/C (second compound 3.16 µM, first compound 3.16 µM): 102% | viability, T/C (second compound 3.16 µM, first compound 10 µM): 95.7% | viability, T/C [17]: 107% | viability, T/C [18]: 114% | viability, T/C [19]: 105% | viability, T/C [20]: 110% | viability, T/C (second compound 10 µM, first compound 3.16 µM): 101% | viability, T/C (second compound 10 µM, first compound 10 µM): 107%

CCN1CCN(Cc2ccc(Nc3ncc(F)c(-c4cc(F)c5nc(C)n(C(C)C)c5c4)n3)nc2)CC1 + COc1cc2nc(C)nc(NC(C)c3cc(N)cc(C(F)(F)F)c3)c2cc1OC1CCOC1
IC50 (second compound 0.1 µM): 573 nM | IC50 (second compound 0.316 µM): 578 nM | IC50 (second compound 1 µM): 549 nM | IC50 (second compound 3.16 µM): 120 nM | IC50 (second compound 10 µM): 66.6 nM | viability, T/C [21]: 97.6% | viability, T/C [22]: 98.1% | viability, T/C [1]: 96% | viability, T/C [2]: 80.6% | viability, T/C [3]: 66.2% | viability, T/C [4]: 35.7% | viability, T/C [23]: 93.2% | viability, T/C [24]: 92.6% | viability, T/C [5]: 92.2% | viability, T/C [6]: 72.2% | viability, T/C [7]: 67.9% | viability, T/C [8]: 36.2% | viability, T/C [25]: 90.3% | viability, T/C [26]: 88.9% | viability, T/C [9]: 86.7% | viability, T/C [10]: 76.8% | viability, T/C [11]: 63.1% | viability, T/C [12]: 36.3% | viability, T/C [27]: 63.5% | viability, T/C [28]: 70% | viability, T/C [13]: 55.3% | viability, T/C [14]: 49.9% | viability, T/C [15]: 43.3% | viability, T/C [16]: 26% | viability, T/C (second compound 10 µM, first compound 0.00316 µM): 83.2% | viability, T/C (second compound 10 µM, first compound 0.01 µM): 74.5% | viability, T/C [17]: 69.7% | viability, T/C [18]: 39.1% | viability, T/C [19]: 17.8% | viability, T/C [20]: 7.16%

Cn1ncnc1[C@H]1c2n[nH]c(=O)c3cc(F)cc(c23)N[C@@H]1c1ccc(F)cc1 + C=CC(=O)N1CCN(c2nc(OCC3CCCN3C)nc3c2CCN(c2cccc4cccc(C)c24)C3)CC1CC#N
IC50 (second compound 0.0316 µM): > 100 nM | IC50 (second compound 0.1 µM): > 100 nM | IC50 (second compound 0.316 µM): > 100 nM | IC50 (second compound 1 µM): > 100 nM | IC50 (second compound 3.16 µM): > 100 nM | viability, T/C (second compound 0.0316 µM, first compound 0.000316 µM): 116% | viability, T/C (second compound 0.0316 µM, first compound 0.001 µM): 112% | viability, T/C (second compound 0.0316 µM, first compound 0.00316 µM): 101% | viability, T/C (second compound 0.0316 µM, first compound 0.01 µM): 97.4% | viability, T/C (second compound 0.0316 µM, first compound 0.0316 µM): 101% | viability, T/C (second compound 0.0316 µM, first compound 0.1 µM): 90.9% | viability, T/C (second compound 0.1 µM, first compound 0.000316 µM): 107% | viability, T/C (second compound 0.1 µM, first compound 0.001 µM): 105% | viability, T/C [21]: 98.5% | viability, T/C [22]: 100% | viability, T/C [1]: 103% | viability, T/C [2]: 100% | viability, T/C (second compound 0.316 µM, first compound 0.000316 µM): 100% | viability, T/C (second compound 0.316 µM, first compound 0.001 µM): 104% | viability, T/C [23]: 103% | viability, T/C [24]: 94.8% | viability, T/C [5]: 96.1% | viability, T/C [6]: 93% | viability, T/C (second compound 1 µM, first compound 0.000316 µM): 101% | viability, T/C (second compound 1 µM, first compound 0.001 µM): 106% | viability, T/C [25]: 94.6% | viability, T/C [26]: 88.9% | viability, T/C [9]: 95.1% | viability, T/C [10]: 99.8% | viability, T/C (second compound 3.16 µM, first compound 0.000316 µM): 62.8% | viability, T/C (second compound 3.16 µM, first compound 0.001 µM): 68.4% | viability, T/C [27]: 61.5% | viability, T/C [28]: 47.8% | viability, T/C [13]: 50.7% | viability, T/C [14]: 62.9%
